In US20220073536A1 (Rigel Pharmaceuticals, Inc., priority 2003, published 2022):
pIC50: −log10 of the molar value. Structures can show the parent of a compound that is named as a salt. Blank lines part the entries; values can stand above or below the molecule they belong to.

Columns and labels:
[1] = test system: cultured human mast cells (CHMC); experiment: CHMC low cell density IgE activation: tryptase assay; format: cell-based; details: low cell density CHMC, IgE activation, tryptase readout
How it was run: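 Tryptase release was read from supernatant with a fluorogenic substrate (30 min, room temperature) after anti-IgE challenge of cultured human mast cells (1000–1500 cells/well, low density) for 30 minutes at 37° C.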

[2] = test system: cultured human mast cells (CHMC); experiment: CHMC low cell density ionomycin activation: tryptase assay; format: cell-based; details: low cell density CHMC, tryptase readout, 3 pt, read-out: LD Tryptase, CHMC, Iono, 3 pt
[3] = 3 pt, read-out: LD Tryptase, CHMC, IgE, 3 pt
[4] = 8 pt, read-out: LD Tryptase, CHMC, IgE, 8 pt
[5] = Homo sapiens, Mast cell, 3 pt, read-out: LD Tryptase, CHMC, IgE, 3 pt
[6] = Homo sapiens, Mast cell, 8 pt, read-out: LD Tryptase, CHMC, IgE, 8 pt

SMILES: Cc1cc(Nc2ncc(F)c(Nc3ccc4c(n3)NC(=O)C(C)(C)O4)n2)cc(Cl)c1OCC(=O)NCC(O)CO (stereo not shown) [Compound 1043, N2-[3-Chloro-4-[N-(2,3-dihydroxypropyl)amino]carbonylmethyleneoxy-5-methylphenyl]-N4-(2,2-dimethyl-3-oxo-4H-5-pyrid[1,4]oxazin-6-yl)-5-fluoro-2,4-pyrimidinediamine]
pIC50 [1, 3]: > 5.00
pIC50 [1, 4]: > 5.00
pIC50 [2]: < 5.00

SMILES: Cc1cc(Nc2ncc(F)c(Nc3ccc4c(n3)NC(=O)C(C)(C)O4)n2)cc(C)c1OCC(=O)NC1CCCC1 [Compound 1044, N2-[3,5-Dimethyl-4-(N-cyclopentylamino)carbonylmethyleneoxyphenyl]-N4-(2,2-dimethyl-3-oxo-4H-5-pyrid[1,4]oxazin-6-yl)-5-fluoro-2,4-pyrimidinediamine]
pIC50 [1, 3]: < 5.00
pIC50 [1, 4]: < 5.00
pIC50 [2]: < 5.00

SMILES: CNC(=O)COc1cccc(Nc2ncc(F)c(Nc3ccc4c(c3)NC(=O)C(F)(F)O4)n2)c1 [Compound 1045, N4-(2,2-Difluoro-3-oxo-4H-benz[1,4]oxazin-6-yl)-5-fluoro-N2-[3-(N-methylamino)carbonylmethyleneoxyphenyl]-2,4-pyrimidinediamine Hydrogen Chloride Salt]
pIC50 [1, 3]: > 5.00
pIC50 [1, 4]: > 5.00
pIC50 [2]: < 5.00

SMILES: CNC(=O)COc1cccc(Nc2ncc(F)c(Nc3ccc4c(c3)NC(=O)C(F)(F)O4)n2)c1 [Compound 1046, N4-(2,2-Difluoro-3-oxo-4H-benz[1,4]oxazin-6-yl)-5-fluoro-N2-[3-(N-methylamino)carbonylmethyleneoxyphenyl]-2,4-pyrimidinediamine Methanesulfonic Acid Salt]
pIC50 [1, 3]: > 5.00
pIC50 [1, 4]: > 5.00
pIC50 [2]: < 5.00

SMILES: CC1(C)Oc2ccc(Nc3nc(Nc4ccc5cn[nH]c5c4)ncc3F)cc2NC1=O [Compound 1047, N4-(2,2-Dimethyl-3-oxo-4H-benz[1,4]oxazin-6-yl)-5-fluoro-N2-(indazol-6-yl)-2,4-pyrimidinediamine Methanesulfonic Acid Salt]
pIC50 [1, 5]: < 5.00
pIC50 [1, 6]: > 5.00
pIC50 ([2]; Homo sapiens, Mast cell): < 5.00

SMILES: CC1(C)CNc2nc(Nc3nc(Cl)ncc3F)ccc2O1 [Compound 1051, 2-Chloro-N4-(3,4-dihydro-2,2-dimethyl-4H-5-pyrid[1,4]oxazin-6-yl)-5-fluoro-4-pyrimidineamine]
pIC50 [1, 3]: < 5.00
pIC50 [2]: < 5.00

SMILES: Cn1ncc2ccc(Nc3ncc(F)c(Nc4ccc5c(n4)NC(=O)C(C)(C)O5)n3)cc21 [Compound 1056, N4-(2,2-Dimethyl-3-oxo-4H-5-pyrid[1,4]oxazin-6-yl)-5-fluoro-N2-[1-methylindazol-6-yl]-2,4-pyrimidinediamine Hydrogen Chloride Salt]
pIC50 [1, 3]: > 5.00
pIC50 [1, 4]: > 5.00
pIC50 [2]: < 5.00

SMILES: Cn1ncc2ccc(Nc3ncc(F)c(Nc4ccc5c(n4)NC(=O)C(C)(C)O5)n3)cc21 [Compound 1057, N4-(2,2-Dimethyl-3-oxo-4H-5-pyrid[1,4]oxazin-6-yl)-5-fluoro-N2-[1-methylindazol-6-yl]-2,4-pyrimidinediamine p-Toluenesulfonic Acid Salt]
pIC50 [1, 3]: > 5.00
pIC50 [1, 4]: > 5.00
pIC50 [2]: < 5.00

SMILES: CC(=O)N1CCN(c2cccc(Nc3ncc(F)c(NC4CCC4)n3)c2)CC1 [Compound 1085, N2-[3-(4-Acetylpiperazino)phenyl]-N4-cyclobutyl-5-fluoro-2,4-pyrimidinediamine]
pIC50 [1, 5]: > 5.00
pIC50 ([2]; Homo sapiens, Mast cell): < 5.00

SMILES: Cc1cc(C)cc(Nc2ncc(F)c(NC3CCC3)n2)c1 [Compound 1087, N4-Cyclobutyl-N2-(3,5-dimethylphenyl)-5-fluoro-2,4-pyrimidinediamine]
pIC50 [1, 5]: > 5.00
pIC50 [1, 6]: > 5.00
pIC50 ([2]; Homo sapiens, Mast cell): < 5.00

SMILES: COc1cc(Nc2ncc(F)c(NC3CCC3)n2)cc(OC)c1 [Compound 1088, N4-Cyclobutyl-N2-(3,5-dimethoxyphenyl)-5-fluoro-2,4-pyrimidinediamine]
pIC50 [1, 5]: > 5.00
pIC50 [1, 6]: > 5.00
pIC50 ([2]; Homo sapiens, Mast cell): < 5.00

SMILES: COc1cc(Nc2ncc(F)c(NC3CCC3)n2)cc(C(F)(F)F)c1 [Compound 1089, N4-Cyclobutyl-5-fluoro-N2-(3-methoxy-5-trifluoromethylphenyl)-2,4-pyrimidinediamine]
pIC50 [1, 5]: > 5.00
pIC50 [1, 6]: > 5.00
pIC50 ([2]; Homo sapiens, Mast cell): < 5.00

SMILES: COc1ccc(Nc2ncc(F)c(Nc3cccc(NC4=NCCN4)c3)n2)cc1F [Compound 1094, 5-Fluoro-N2-(3-fluoro-4-methoxyphenyl)-N4-[3-(N-2-imidazolin-2-yl)aminophenyl]-2,4-pyrimidinediamine]
pIC50 [1, 5]: > 5.00
pIC50 ([2]; Homo sapiens, Mast cell): < 5.00

SMILES: Cc1cc(C)cc(Nc2ncc(F)c(Nc3cccc(NC4=NCCN4)c3)n2)c1 [Compound 1095, N2-(3,5-Dimethylphenyl)-5-fluoro-N4-[3-(N-2-imidazolin-2-yl)aminophenyl]-2,4-pyrimidinediamine]
pIC50 [1, 5]: > 5.00
pIC50 ([2]; Homo sapiens, Mast cell): < 5.00

SMILES: COc1cc(Nc2ncc(F)c(Nc3cccc(NC4=NCCN4)c3)n2)cc(OC)c1 [Compound 1096, N2-(3,5-Dimethoxyphenyl)-5-fluoro-N4-[3-(N-2-imidazolin-2-yl)aminophenyl]-2,4-pyrimidinediamine]
pIC50 [1, 5]: > 5.00
pIC50 [1, 6]: < 5.00
pIC50 ([2]; Homo sapiens, Mast cell): < 5.00

SMILES: Fc1cnc(Nc2cccc(N3CCOCC3)c2)nc1Nc1cccc(NC2=NCCN2)c1 [Compound 1097, 5-Fluoro-N4-[3-(N-2-imidazolin-2-yl)aminophenyl]-N2-(3-morpholinophenyl)-2,4-pyrimidinediamine]
pIC50 [1, 5]: < 5.00
pIC50 ([2]; Homo sapiens, Mast cell): < 5.00

SMILES: CCOC(=O)N1CCN(c2cccc(Nc3ncc(F)c(Nc4cccc(NC5=NCCN5)c4)n3)c2)CC1 [Compound 1098, N2-[3-(4-Ethoxycarbonylpiperazino)phenyl]-5-fluoro-N4-[3-(N-2-imidazolin-2-yl)aminophenyl]-2,4-pyrimidinediamine]
pIC50 [1, 5]: < 5.00
pIC50 ([2]; Homo sapiens, Mast cell): < 5.00

SMILES: CN1CCN(c2ccc(Nc3ncc(F)c(Nc4cccc(NC5=NCCN5)c4)n3)cc2)CC1 [Compound 1099, 5-Fluoro-N4-[3-(N-2-imidazolin-2-yl)aminophenyl]-N2-[4-(4-methylpiperazino)phenyl]-2,4-pyrimidinediamine]
pIC50 [1, 5]: < 5.00
pIC50 ([2]; Homo sapiens, Mast cell): < 5.00

Further lines, results first:

pIC50 [1, 3]: > 5.00
pIC50 [1, 4]: > 5.00
pIC50 [2]: < 5.00
SMILES: CCn1ncc2ccc(Nc3ncc(F)c(Nc4ccc5c(n4)NC(=O)C(C)(C)O5)n3)cc21 [Compound 1049, N4-(2,2-Dimethyl-3-oxo-4H-5-pyrid[1,4]oxazin-6-yl)-N2-(1-ethylindazol-6-yl)-5-fluoro-2,4-pyrimidinediamine]

pIC50 [1, 3]: > 5.00
pIC50 [1, 4]: > 5.00
pIC50 [2]: < 5.00
SMILES: CC(C)n1ncc2ccc(Nc3ncc(F)c(Nc4ccc5c(n4)NC(=O)C(C)(C)O5)n3)cc21 [Compound 1050, N4-(2,2-Dimethyl-3-oxo-4H-5-pyrid[1,4]oxazin-6-yl)-N2-(1-isopropylindazol-6-yl)-5-fluoro-2,4-pyrimidinediamine]

pIC50 [1, 3]: > 5.00
pIC50 [1, 4]: > 5.00
pIC50 [2]: > 5.00
SMILES: Cn1ncc2ccc(Nc3ncc(F)c(Nc4ccc5c(n4)NCC(C)(C)O5)n3)cc21 [Compound 1052, N4-(3,4-Dihydro-2,2-dimethyl-4H-5-pyrid[1,4]oxazin-6-yl)-5-fluoro-N2-(1-methylindazol-6-yl)-2,4-pyrimidinediamine]

pIC50 [1, 3]: > 5.00
pIC50 [1, 4]: > 5.00
pIC50 [2]: < 5.00
SMILES: CNC(=O)COc1cccc(Nc2ncc(F)c(Nc3ccc4c(n3)NCC(C)(C)O4)n2)c1 [Compound 1053, N4-(3,4-Dihydro-2,2-dimethyl-4H-5-pyrid[1,4]oxazin-6-yl)-5-fluoro-N2-[3-(N-methylamino)carbonylmethyleneoxyphenyl]-2,4-pyrimidinediamine]

pIC50 [1, 3]: > 5.00
pIC50 [1, 4]: > 5.00
pIC50 [2]: < 5.00
SMILES: CNC(=O)c1ccc(Nc2ncc(F)c(Nc3ccc4c(n3)NC(=O)C(C)(C)O4)n2)cc1Cl [Compound 1054, N2-[3-Chloro-4-(N-methylamino)carbonylphenyl]-N4-(2,2-dimethyl-3-oxo-4H-5-pyrid[1,4]oxazin-6-yl)-5-fluoro-2,4-pyrimidinediamine]

pIC50 [1, 3]: > 5.00
pIC50 [1, 4]: > 5.00
pIC50 [2]: < 5.00
SMILES: CC1(C)Oc2ccc(Nc3nc(Nc4ccc5c(c4)OCCO5)ncc3F)nc2NC1=O [Compound 1055, N4-(2,2-Dimethyl-3-oxo-4H-5-pyrid[1,4]oxazin-6-yl)-N2-(3,4-ethylenedioxyphenyl)-5-fluoro-2,4-pyrimidinediamine]

pIC50 [1, 3]: > 5.00
pIC50 [2]: < 5.00
SMILES: CC(C)(C)c1cc(Nc2ncc(F)c(Nc3ccc4c(n3)NC(=O)CO4)n2)n[nH]1 [Compound 1086, N2-(5-tert-Butylpyrazol-3-yl)-5-fluoro-N4-(3-oxo-2H,4H-5-pyrid[1,4]oxazin-6-yl)-2,4-pyrimidinediamine]

pIC50 [1, 5]: > 5.00
pIC50 [1, 6]: > 5.00
pIC50 ([2]; Homo sapiens, Mast cell): < 5.00
SMILES: CC(C)(C)c1cc(Nc2nc(Nc3cccc(N4CCOCC4)c3)ncc2F)n[nH]1 [Compound 1090]

pIC50 [1, 5]: > 5.00
pIC50 [1, 6]: > 5.00
pIC50 ([2]; Homo sapiens, Mast cell): < 5.00
SMILES: CC(=O)N1CCN(c2cccc(Nc3ncc(F)c(Nc4cc(C(C)(C)C)[nH]n4)n3)c2)CC1 [Compound 1091, N2-[3-(4-Acetylpiperazino)phenyl]-N4-(5-tert-butyl-1H-pyrazol-3-yl)-5-fluoro-2,4-pyrimidinediamine]

pIC50 [1, 3]: > 5.00
pIC50 [1, 4]: > 5.00
pIC50 [2]: < 5.00
SMILES: C[C@@H]1Oc2ccc(Nc3nc(Nc4cc(C(C)(C)C)[nH]n4)ncc3F)nc2NC1=O [Compound 1092, (S)-N2-(5-tert-Butyl-1H-pyrazol-3-yl)-5-fluoro-N4-(2-methyl-3-oxo-2H,4H-5-pyrid[1,4]oxazin-6-yl)-2,4-pyrimidinediamine]
